Assay: (§1) The drug is tested on Z-025 corresponding to rabbit gut metagenome with ENA study accession number: PRJEB37062 and ENA sample accession number: ERS12561824 for biotransformation under anaerobic condition. The drug concentrations were measured over 9 timepoints collected between 0 and 24 hours of incubation by liquid-chromatography-coupled mass spectrometry (LC–MS)
Conditions: 2 µM
Further: call rule not given here.

| SMILES | Bacterial Biotransformation |
| --- | --- |
| O=C1CC2(CCCC2)CC(=O)N1CCCCN1CCN(c2ncccn2)CC1 [BUSPIRONE] | Compound NOT metabolized |
| CCCC(C)(COC(N)=O)COC(=O)NC(C)C (stereo not given) [CARISOPRODOL] | Compound metabolized |

Assay: as §1, with “Z-023” for “Z-025”, “to” for “to rabbit gut”, “ERS12561822” for “ERS12561824”
Conditions: 2 µM

| SMILES | Bacterial Biotransformation |
| --- | --- |
| O=C1CC2(CCCC2)CC(=O)N1CCCCN1CCN(c2ncccn2)CC1 [BUSPIRONE] | Compound metabolized |
| CCCC(C)(COC(N)=O)COC(=O)NC(C)C (stereo not given) [CARISOPRODOL] | Compound metabolized |

Assay: as §1, with “Z-022” for “Z-025”, “mouse” for “rabbit”, “ERS12561821” for “ERS12561824”
Conditions: 2 µM

| SMILES | Bacterial Biotransformation |
| --- | --- |
| O=C1CC2(CCCC2)CC(=O)N1CCCCN1CCN(c2ncccn2)CC1 [BUSPIRONE] | Compound NOT metabolized |
| CCCC(C)(COC(N)=O)COC(=O)NC(C)C (stereo not given) [CARISOPRODOL] | Compound metabolized |

Assay: as §1, with “Z-013” for “Z-025”, “ERS12561813” for “ERS12561824”
Conditions: 2 µM

| SMILES | Bacterial Biotransformation |
| --- | --- |
| O=C1CC2(CCCC2)CC(=O)N1CCCCN1CCN(c2ncccn2)CC1 [BUSPIRONE] | Compound NOT metabolized |
| CCCC(C)(COC(N)=O)COC(=O)NC(C)C (stereo not given) [CARISOPRODOL] | Compound NOT metabolized |

Assay: as §1, with “Z-009” for “Z-025”, “pig” for “rabbit”, “ERS12561809” for “ERS12561824”
Conditions: 2 µM

| SMILES | Bacterial Biotransformation |
| --- | --- |
| O=C1CC2(CCCC2)CC(=O)N1CCCCN1CCN(c2ncccn2)CC1 [BUSPIRONE] | Compound NOT metabolized |
| CCCC(C)(COC(N)=O)COC(=O)NC(C)C (stereo not given) [CARISOPRODOL] | Compound metabolized |

Assay: as §1, with “Z-007” for “Z-025”, “rat” for “rabbit”, “ERS12561807” for “ERS12561824”
Conditions: 2 µM

| SMILES | Bacterial Biotransformation |
| --- | --- |
| O=C1CC2(CCCC2)CC(=O)N1CCCCN1CCN(c2ncccn2)CC1 [BUSPIRONE] | Compound NOT metabolized |
| CCCC(C)(COC(N)=O)COC(=O)NC(C)C (stereo not given) [CARISOPRODOL] | Compound NOT metabolized |

Assay: as §1, with “Z-006” for “Z-025”, “mouse” for “rabbit”, “ERS12561806” for “ERS12561824”
Conditions: 2 µM

| SMILES | Bacterial Biotransformation |
| --- | --- |
| O=C1CC2(CCCC2)CC(=O)N1CCCCN1CCN(c2ncccn2)CC1 [BUSPIRONE] | Compound NOT metabolized |
| CCCC(C)(COC(N)=O)COC(=O)NC(C)C (stereo not given) [CARISOPRODOL] | Compound metabolized |

Assay: as §1, with “Z-004” for “Z-025”, “to” for “to rabbit gut”, “ERS12561804” for “ERS12561824”
Conditions: 2 µM

| SMILES | Bacterial Biotransformation |
| --- | --- |
| O=C1CC2(CCCC2)CC(=O)N1CCCCN1CCN(c2ncccn2)CC1 [BUSPIRONE] | Compound NOT metabolized |
| CCCC(C)(COC(N)=O)COC(=O)NC(C)C (stereo not given) [CARISOPRODOL] | Compound metabolized |

Assay: as §1, with “WLS-350” for “Z-025”, “human” for “rabbit”, “ERS12561789” for “ERS12561824”
Conditions: 2 µM

| SMILES | Bacterial Biotransformation |
| --- | --- |
| O=C1CC2(CCCC2)CC(=O)N1CCCCN1CCN(c2ncccn2)CC1 [BUSPIRONE] | Compound metabolized |
| CCCC(C)(COC(N)=O)COC(=O)NC(C)C (stereo not given) [CARISOPRODOL] | Compound metabolized |

Assay: as §1, with “WLS-073” for “Z-025”, “human” for “rabbit”, “ERS12561749” for “ERS12561824”
Conditions: 2 µM

| SMILES | Bacterial Biotransformation |
| --- | --- |
| O=C1CC2(CCCC2)CC(=O)N1CCCCN1CCN(c2ncccn2)CC1 [BUSPIRONE] | Compound NOT metabolized |
| CCCC(C)(COC(N)=O)COC(=O)NC(C)C (stereo not given) [CARISOPRODOL] | Compound metabolized |

Assay: as §1, with “WLS-052” for “Z-025”, “human” for “rabbit”, “ERS12561747” for “ERS12561824”
Conditions: 2 µM

| SMILES | Bacterial Biotransformation |
| --- | --- |
| O=C1CC2(CCCC2)CC(=O)N1CCCCN1CCN(c2ncccn2)CC1 [BUSPIRONE] | Compound NOT metabolized |
| CCCC(C)(COC(N)=O)COC(=O)NC(C)C (stereo not given) [CARISOPRODOL] | Compound metabolized |

Assay: as §1, with “WLS-010” for “Z-025”, “human” for “rabbit”, “ERS12561743” for “ERS12561824”
Conditions: 2 µM

| SMILES | Bacterial Biotransformation |
| --- | --- |
| O=C1CC2(CCCC2)CC(=O)N1CCCCN1CCN(c2ncccn2)CC1 [BUSPIRONE] | Compound NOT metabolized |
| CCCC(C)(COC(N)=O)COC(=O)NC(C)C (stereo not given) [CARISOPRODOL] | Compound metabolized |

Conditions: human gut metagenome, 24 h, 2 µM

| SMILES | Bacterial Biotransformation |
| --- | --- |
| O=C1CC2(CCCC2)CC(=O)N1CCCCN1CCN(c2ncccn2)CC1 [BUSPIRONE] | Compound NOT metabolized |
| CCCC(C)(COC(N)=O)COC(=O)NC(C)C (stereo not given) [CARISOPRODOL] | Compound metabolized |

Conditions: human gut metagenome, 24 h, 2 µM
Remark: another data set of the same source

| SMILES | Bacterial Biotransformation |
| --- | --- |
| O=C1CC2(CCCC2)CC(=O)N1CCCCN1CCN(c2ncccn2)CC1 [BUSPIRONE] | Compound NOT metabolized |
| CCCC(C)(COC(N)=O)COC(=O)NC(C)C (stereo not given) [CARISOPRODOL] | Compound metabolized |

Conditions: human gut metagenome, 24 h, 2 µM
Remark: another data set of the same source

| SMILES | Bacterial Biotransformation |
| --- | --- |
| O=C1CC2(CCCC2)CC(=O)N1CCCCN1CCN(c2ncccn2)CC1 [BUSPIRONE] | Compound metabolized |
| CCCC(C)(COC(N)=O)COC(=O)NC(C)C (stereo not given) [CARISOPRODOL] | Compound metabolized |

Conditions: human gut metagenome, 24 h, 2 µM
Remark: another data set of the same source

| SMILES | Bacterial Biotransformation |
| --- | --- |
| O=C1CC2(CCCC2)CC(=O)N1CCCCN1CCN(c2ncccn2)CC1 [BUSPIRONE] | Compound NOT metabolized |
| CCCC(C)(COC(N)=O)COC(=O)NC(C)C (stereo not given) [CARISOPRODOL] | Compound metabolized |

Conditions: human gut metagenome, 24 h, 2 µM
Remark: another data set of the same source

| SMILES | Bacterial Biotransformation |
| --- | --- |
| O=C1CC2(CCCC2)CC(=O)N1CCCCN1CCN(c2ncccn2)CC1 [BUSPIRONE] | Compound metabolized |
| CCCC(C)(COC(N)=O)COC(=O)NC(C)C (stereo not given) [CARISOPRODOL] | Compound NOT metabolized |

Conditions: human gut metagenome, 24 h, 2 µM
Remark: another data set of the same source

| SMILES | Bacterial Biotransformation |
| --- | --- |
| O=C1CC2(CCCC2)CC(=O)N1CCCCN1CCN(c2ncccn2)CC1 [BUSPIRONE] | Compound NOT metabolized |
| CCCC(C)(COC(N)=O)COC(=O)NC(C)C (stereo not given) [CARISOPRODOL] | Compound NOT metabolized |

Conditions: human gut metagenome, 24 h, 2 µM
Remark: another data set of the same source

| SMILES | Bacterial Biotransformation |
| --- | --- |
| O=C1CC2(CCCC2)CC(=O)N1CCCCN1CCN(c2ncccn2)CC1 [BUSPIRONE] | Compound NOT metabolized |
| CCCC(C)(COC(N)=O)COC(=O)NC(C)C (stereo not given) [CARISOPRODOL] | Compound metabolized |

Conditions: human gut metagenome, 24 h, 2 µM
Remark: another data set of the same source

| SMILES | Bacterial Biotransformation |
| --- | --- |
| O=C1CC2(CCCC2)CC(=O)N1CCCCN1CCN(c2ncccn2)CC1 [BUSPIRONE] | Compound metabolized |
| CCCC(C)(COC(N)=O)COC(=O)NC(C)C (stereo not given) [CARISOPRODOL] | Compound metabolized |

— ChEMBL document CHEMBL5724914, “Linking interpersonal differences in gut microbiota composition and drug biotransformation activity” (2024)
